From patent publication US20140107109A1, “AMINO-DIHYDROTHIAZINE AND AMINO-DIOXIDO DIHYDROTHIAZINE COMPOUNDS AS BETA-SECRETASE ANTAGONISTS AND METHODS OF USE” (Amgen Inc., priority 2012, published 2014)
Like-named read-outs stand apart in the source and are kept apart here.

What was measured:
[1] = target: Beta Secretase enzyme (BACE1) (Homo sapiens, UniProt P56817); experiment: In vitro enzymatic BACE FRET assay; format: biochemical; settings: read-out: BACE1 FRET assay IC50
Summary of the method: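 Readout: dequenched fluorescence (ex 488 nm/[…]) after neutralizing with Tris buffer. Reactions, begun by adding 50 nM quenched peptide substrate spanning the BACE cleavage site, were incubated one hour at pH 4.2 in 0.05 M acetate with 100 uM genapol and 10% final DMSO.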

[2] = tested on: Aβ40 in conditioned medium of cells stably expressing Amyloid Precursor Protein (APP); experiment: In vitro BACE cell-based assay (HEK cell assay), Aβ40 sandwich ELISA; settings: Homo sapiens, HEK293
Summary of the method: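 Aβ40 in conditioned medium was quantified by time-resolved fluorescence sandwich ELISA (pAb40 capture 3 h at 4 °C, biotin-6E10 detection 2 h at 4 °C) after 24 h compound exposure of APP-expressing cells. Doses spanned 10 points from 100 μM or 10 μM top, 0.1% DMSO; IC50 was derived from percent of control.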

[3] = target: T1, Cathepsin D (Cat D) (Homo sapiens, UniProt P07339); experiment: In vitro enzymatic Cathepsin D (Cat D) FRET assay; format: biochemical; settings: read-out: CatD IC50
T1 construct: Recombinant Cat D was expressed in CHO cells; made in house; host or cells: CHO cells
Summary of the method: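 FRET read-out: a fluorophore/quencher-labelled peptide substrate is cleaved by 9 nM Cat D (recombinant, CHO-expressed) following a one-hour preincubation with inhibitor dilutions in DMSO. Tris buffer added to neutralize pH ends the reaction before fluorescence measurement.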

T1 sequence (P07339 65-412, species assumed): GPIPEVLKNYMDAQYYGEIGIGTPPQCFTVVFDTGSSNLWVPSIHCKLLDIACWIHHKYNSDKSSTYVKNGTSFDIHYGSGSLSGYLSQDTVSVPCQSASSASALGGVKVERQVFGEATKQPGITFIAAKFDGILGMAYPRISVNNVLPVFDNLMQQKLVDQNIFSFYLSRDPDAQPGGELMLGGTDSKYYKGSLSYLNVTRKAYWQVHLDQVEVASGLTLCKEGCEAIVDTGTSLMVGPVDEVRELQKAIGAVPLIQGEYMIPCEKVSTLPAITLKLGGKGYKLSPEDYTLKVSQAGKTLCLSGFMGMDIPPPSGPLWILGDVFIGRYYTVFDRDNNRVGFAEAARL
Beta Secretase enzyme (BACE1), sequence (P56817 46-501): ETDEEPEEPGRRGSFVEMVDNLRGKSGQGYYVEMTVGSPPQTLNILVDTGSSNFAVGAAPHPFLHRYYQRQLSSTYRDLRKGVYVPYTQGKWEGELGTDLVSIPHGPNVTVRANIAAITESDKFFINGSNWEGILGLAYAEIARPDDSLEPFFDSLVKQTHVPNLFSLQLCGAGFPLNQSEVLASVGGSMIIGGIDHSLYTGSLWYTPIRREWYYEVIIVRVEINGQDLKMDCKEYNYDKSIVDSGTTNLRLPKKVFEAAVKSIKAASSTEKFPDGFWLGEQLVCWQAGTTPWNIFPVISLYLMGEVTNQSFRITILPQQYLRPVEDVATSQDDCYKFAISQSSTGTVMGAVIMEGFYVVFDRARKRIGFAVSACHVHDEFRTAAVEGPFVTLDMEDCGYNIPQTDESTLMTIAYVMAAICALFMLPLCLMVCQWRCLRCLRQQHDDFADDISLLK

| SMILES | IC50 ([1]; average IC50, enzyme assay) [µM] | IC50 ([2]; average IC50, cell assay) [µM] | IC50 [3] [µM] | IC50 [1] [µM] | other results |
| --- | --- | --- | --- | --- | --- |
| CC1(C)C(N)=N[C@](CF)(c2cc(Nc3ncc(F)c4cc(C#N)cnc34)ccc2F)CS1(=O)=O [Example 157, (S)-8-((3-(5-amino-3-(fluoromethyl)-6,6-dimethyl-1,1-dioxido-3,6-dihydro-2H-1,4-thiazin-3-yl)-4-fluorophenyl)amino)-5-fluoro-1,7-naphthyridine-3-carbonitrile] | 0.00056 | 0.0271 | > 14.8 | – | – |
| N#Cc1cnc(C(=O)Nc2ccc(F)c([C@]3(CF)CS(=O)(=O)C4(CCC4)C(N)=N3)c2)c(Cl)c1 [Example 372, N-(3-((7S)-9-amino-7-(fluoromethyl)-5,5-dioxido-5-thia-8-azaspiro[3.5]non-8-en-7-yl)-4-fluorophenyl)-3-chloro-5-cyano-2-pyridinecarboxamide] | – | – | 367 | 0.00072 | IC50 [2]: 0.0071 µM |
| CC1(C)C(N)=N[C@](C)(c2cc(Oc3nccc4nc(C(F)(F)F)cnc34)ccc2F)CS1(=O)=O [Example 253, (5R)-5-(2-fluoro-5-((2-(trifluoromethyl)pyrido[3,4-b]pyrazin-5-yl)oxy)phenyl)-2,2,5-trimethyl-5,6-dihydro-2H-1,4-thiazin-3-amine 1,1-dioxide] | 0.0276 | 1.03 | 1410 | – | – |
| COc1cnc(C(=O)Nc2ccc(F)c(C3(C(F)F)CS(=O)(=O)C(C)(C)C(N)=N3)c2)cn1 (stereo not drawn) [Example 32, N-(3-(-5-amino-3-(difluoromethyl)-6,6-dimethyl-1,1-dioxido-3,6-dihydro-2H-1,4-thiazin-3-yl)-4-fluorophenyl)-5-methoxy-2-pyrazinecarboxamide] | – | – | > 400 | 0.0531 | IC50 ([2]; Aβ40, 24 h incubation): 1.42 µM |
| COc1ccc(C(=O)Nc2cnc(F)c([C@]3(C)CS(=O)(=O)C(C)(C)C(N)=N3)c2)nc1 [Example 401, N-(5-((3R)-5-amino-3,6,6-trimethyl-1,1-dioxido-3,6-dihydro-2H-1,4-thiazin-3-yl)-6-fluoro-3-pyridinyl)-5-methoxy-2-pyridinecarboxamide] | – | – | 757 | 0.00398 | IC50 [2]: 0.0179 µM |
| NC1=N[C@](CF)(c2cc(Nc3nccc4cc(Cl)cnc34)ccc2F)CS(=O)(=O)C12CCC2 [Example 245, N-(3-((7S)-9-amino-7-(fluoromethyl)-5,5-dioxido-5-thia-8-azaspiro[3.5]non-8-en-7-yl)-4-fluorophenyl)-3-chloro-1,7-naphthyridin-8-amine] | 0.00056 | 0.0465 | 290 | – | – |
| CC1(C)C(N)=N[C@](C)(c2cc(Oc3ccc4ccccc4c3)ccc2F)CS1(=O)=O [Example 102, (R)-5-amino-3-(2-fluoro-5-(naphthalen-2-yloxy)phenyl)-3,6,6-trimethyl-3,6-dihydro-2H-1,4-thiazine 1,1-dioxide] | – | – | 51.2 | 2.35 | IC50 ([2]; Aβ40, 24 h incubation): 8.04 µM |
| COCc1cc(Cl)cnc1C(=O)Nc1ccc(F)c([C@]2(CF)CS(=O)(=O)C(C)(C)C(N)=N2)c1 [Example 458, N-(3-((3S)-5-amino-3-(fluoromethyl)-6,6-dimethyl-1,1-dioxido-3,6-dihydro-2H-1,4-thiazin-3-yl)-4-fluorophenyl)-5-chloro-3-(methoxymethyl)-2-pyridinecarboxamide] | – | – | 499 | – | IC50 ([1]; average IC50): 0.0009 µM; IC50 ([2]; average IC50, HEK cells): 0.0239 µM |
| COc1cc(Cl)cnc1C(=O)Nc1ccc(F)c([C@]2(CF)CS(=O)(=O)C3(CCC3)C(N)=N2)c1 [Example 375, N-(3-((7S)-9-amino-7-(fluoromethyl)-5,5-dioxido-5-thia-8-azaspiro[3.5]non-8-en-7-yl)-4-fluorophenyl)-5-chloro-3-methoxy-2-pyridinecarboxamide] | – | – | 781 | 0.0029 | IC50 [2]: 0.0298 µM |
| CC1(C)C(N)=N[C@](CF)(c2cc(NC(=O)c3cnc(OCCF)cn3)ccc2F)CS1(=O)=O [Example 365, N-(3-((3S)-5-amino-3-(fluoromethyl)-6,6-dimethyl-1,1-dioxido-3,6-dihydro-2H-1,4-thiazin-3-yl)-4-fluorophenyl)-5-(2-fluoroethoxy)-2-pyrazinecarboxamide] | 0.00097 | – | > 400 | – | IC50 ([2]; average IC50, HEK cell assay): 0.0447 µM |
| CC1(C)C(N)=N[C@](C)(c2cc(NC(=O)c3cnc(C(F)(F)F)cn3)ccc2F)CS1(=O)=O [Example 21, N-(3-((3R)-5-amino-3,6,6-trimethyl-1,1-dioxido-3,6-dihydro-2H-1,4-thiazin-3-yl)-4-fluorophenyl)-5-(trifluoromethyl)-2-pyrazinecarboxamide] | – | – | > 400 | 0.0074 | IC50 ([2]; Aβ40, 24 h incubation): 0.011 µM |
| C[C@@]1(c2cc(Br)ncc2F)CS(=O)(=O)C2(CCC2)C(N)=N1 [Example 147, (R)-9-amino-7-(2-bromo-5-fluoropyridin-4-yl)-7-methyl-5-thia-8-azaspiro[3.5]non-8-ene 5,5-dioxide] | 17 | > 15.6 | 43.5 | – | – |
| NC1=N[C@](CF)(c2cc(Br)ccc2F)CS(=O)(=O)C12CCC2 [Example 172, (S)-9-amino-7-(5-bromo-2-fluorophenyl)-7-(fluoromethyl)-5-thia-8-azaspiro[3.5]non-8-ene 5,5-dioxide] | – | – | 45.4 | – | IC50 ([1]; average IC50): 3.56 µM; IC50 ([2]; average IC50, HEK cells): > 15.6 µM |

Continued by falling IC50 [3], values first:

| IC50 ([1]; average IC50, enzyme assay) [µM] | IC50 ([2]; average IC50, cell assay) [µM] | IC50 [3] [µM] | IC50 [1] [µM] | SMILES | other results |
| --- | --- | --- | --- | --- | --- |
| 0.566 | 0.679 | 218 | – | CC1(C)C(N)=N[C@](C)(c2cc(Sc3cc(C#N)ccn3)ccc2F)CS1(=O)=O [Example 440, 2-((3-((3R)-5-amino-3,6,6-trimethyl-1,1-dioxido-3,6-dihydro-2H-1,4-thiazin-3-yl)-4-fluorophenyl)sulfanyl)-4-pyridinecarbonitrile] | – |
| – | – | 217 | 0.00262 | CC1(C)C(N)=N[C@](CF)(c2cc(NC(=O)c3ccc(C(F)(F)F)cn3)ccc2F)CS1(=O)=O [Example 383, N-(3-((3S)-5-amino-3-(fluoromethyl)-6,6-dimethyl-1,1-dioxido-3,6-dihydro-2H-1,4-thiazin-3-yl)-4-fluorophenyl)-5-(trifluoromethyl)-2-pyridinecarboxamide] | IC50 [2]: 0.02 µM |
| – | – | 197 | 0.00245 | COc1cnc(C(=O)Nc2ccc(F)c([C@]3(CF)CS(=O)(=O)C4(CCC4)C(N)=N3)c2)c(C)c1 [Example 373, N-(3-((7S)-9-amino-7-(fluoromethyl)-5,5-dioxido-5-thia-8-azaspiro[3.5]non-8-en-7-yl)-4-fluorophenyl)-5-methoxy-3-methyl-2-pyridinecarboxamide] | IC50 [2]: 0.0148 µM |
| 3.72 | 3.03 | 190 | – | CC1(C)C(N)=N[C@](C)(c2cc(N)ccc2F)[C@@H](F)S1(=O)=O [Example 164, (2S,3R)-5-amino-3-(5-amino-2-fluorophenyl)-2-fluoro-3,6,6-trimethyl-3,6-dihydro-2H-1,4-thiazine 1,1-dioxide] | – |
| 0.00268 | 0.0782 | 175 | – | COc1cnc2c(Nc3ccc(F)c([C@]4(C)CS(=O)(=O)[C@@](C)(F)C(N)=N4)c3)ncnc2c1 [Example 177, (3R,6R)-5-Amino-6-fluoro-3-(2-fluoro-5-((7-methoxypyrido[3,2-d]pyrimidin-4-yl)amino)phenyl)-3,6-dimethyl-3,6-dihydro-2H-1,4-thiazine 1,1-dioxide] | – |
| – | – | 78.9 | 0.00063 | Cc1cc(OC(F)F)cnc1C(=O)Nc1ccc(F)c([C@]2(CF)CS(=O)(=O)C3(CCC3)C(N)=N2)c1 [Example 412, N-(3-((7S)-9-amino-7-(fluoromethyl)-5,5-dioxido-5-thia-8-azaspiro[3.5]non-8-en-7-yl)-4-fluorophenyl)-5-(difluoromethoxy)-3-methyl-2-pyridinecarboxamide] | IC50 [2]: 0.0082 µM |
| 0.807 | 1.12 | 61.2 | – | CC1(C)C(N)=N[C@](C)(c2cc(Oc3cc(-c4ccc(Cl)cn4)ccn3)ccc2F)CS1(=O)=O [Example 281, (5R)-5-(5-((5-chloro-2,4′-bipyridin-2′-yl)oxy)-2-fluorophenyl)-2,2,5-trimethyl-5,6-dihydro-2H-1,4-thiazin-3-amine 1,1-dioxide] | – |
| 0.0017 | 0.0272 | 57.1 | – | NC1=N[C@](CF)(c2cc(Nc3ncnc4cc(Cl)cnc34)ccc2F)CS(=O)(=O)C12CCC2 [Example 240, N-(3-((7S)-9-amino-7-(fluoromethyl)-5,5-dioxido-5-thia-8-azaspiro[3.5]non-8-en-7-yl)-4-fluorophenyl)-7-chloropyrido[3,2-d]pyrimidin-4-amine] | – |
| – | – | 27.1 | 0.00056 | CC1(C)C(N)=N[C@](C)(c2cc(Nc3ncc(F)c4cc(Cl)cnc34)ccc2F)CS1(=O)=O [Example 49, N-(3-((3R)-5-amino-3,6,6-trimethyl-1,1-dioxido-3,6-dihydro-2H-1,4-thiazin-3-yl)-4-fluorophenyl)-3-chloro-5-fluoro-1,7-naphthyridin-8-amine] | IC50 ([2]; Aβ40, 24 h incubation): 0.0151 µM |
| 0.0022 | 0.263 | 13.9 | – | CC1(C)C(N)=N[C@](C)(c2cc(Nc3cc(Cl)cc4cc(Cl)cnc34)ccc2F)CS1(=O)=O [Example 446, N-(3-((3R)-5-amino-3,6,6-trimethyl-1,1-dioxido-3,6-dihydro-2H-1,4-thiazin-3-yl)-4-fluorophenyl)-3,6-dichloro-8-quinolinamine] | – |
